Assay results reported in patent US20080312197A1, “PHARMACEUTICAL PRODUCTS CONTAINING HORMONES AND A 25-HYDROXY VITAMIN D COMPOUND” (priority 2007, published 2008).

Key:
[1] = tested on: Vitamin D 24 hydroxylase (24-OH); assay: Western blot of 24 hydroxylase expression in OVCAR 3 cells; type: cell-based, human; settings: 18 hours, 100 nM Vitamin D, 25 μM progesterone, 25 μM Genistein
Source text: Protein was then extracted from the cells and 24-OH expression was the measured via Western Blot, and the degree of expression (band density) measured via a densitometer.

[2] = cited from earlier work
[3] = target: T1, 24 hydroxylase (24-OH) (Homo sapiens, UniProt Q07973); settings: shown by others; cited from earlier work
T1 sequence (Q07973 36-514): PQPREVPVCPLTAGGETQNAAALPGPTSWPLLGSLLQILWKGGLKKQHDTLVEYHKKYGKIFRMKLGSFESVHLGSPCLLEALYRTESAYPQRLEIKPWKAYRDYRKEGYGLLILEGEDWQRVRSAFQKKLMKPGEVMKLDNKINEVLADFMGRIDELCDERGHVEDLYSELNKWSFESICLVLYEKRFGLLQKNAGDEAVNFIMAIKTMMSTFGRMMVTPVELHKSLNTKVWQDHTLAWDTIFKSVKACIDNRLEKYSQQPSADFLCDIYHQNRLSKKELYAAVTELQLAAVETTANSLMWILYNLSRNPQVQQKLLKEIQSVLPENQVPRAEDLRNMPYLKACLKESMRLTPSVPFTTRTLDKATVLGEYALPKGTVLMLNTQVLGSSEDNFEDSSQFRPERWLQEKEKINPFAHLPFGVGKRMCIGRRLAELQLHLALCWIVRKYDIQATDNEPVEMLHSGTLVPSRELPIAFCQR

[4] = tested on: OVCAR 3 cells; assay: MTS cell viability assay, OVCAR 3 cells; type: cell-based, human
Description: (§1) Progesterone and Vitamin D (1,25(OH)2 D3) were tested to determine their effect on cell lines derived from the human ovarian surface epithelium. […] This is shown in FIGS. 1-3 in both ovarian cancer cell lines (OVCAR 5 and OVCAR 3) as well as an immortalized cell cultures derived from the normal human ovarian epithelium (HIO-118V). There is a marked impact on cell viability when the two agents are combined and administered at a dosage that has a marginal impact for each agent given alone.

[5] = tested on: OVCAR 5 cells; assay: MTS cell viability assay, OVCAR 5 cells; type: cell-based, human
Description: as §1

[6] = tested on: HIO-118V cells; assay: MTS cell viability assay, immortalized human ovarian epithelial cells (HIO-118V); type: cell-based
Description: as §1

[7] = tested on: HIO-118V cells; assay: Apoptosis by TUNEL method, HIO-118V cells; type: cell-based, human; settings: 45 uM progesterone, 1 uM Vitamin D
Description: In experiments to further understand the effect of progestin and vitamin D on cell viability, experiments were conducted to determine how progestin, vitamin D, and the combination act to induce apoptosis. In the experiment cells were incubated for 28 and 48 hours in the hormonal treatments as indicated and assessed for TUNEL reactivity. In these experiments, Apoptosis (TUNEL) data shown in conditions in which inhibitory effects via MTS were shown. In the example shown in FIG. 4, OVCAR 3 cells undergo a 7-fold increase in apoptosis at 48 hrs when treated with a combination of progesterone and vitamin D. HIO-118V cells show a 1.7-fold increase in apoptosis with 45 uM progesterone alone and a 1.9-fold increase with the combination of 1 uM Vitamin D and 45 uM progesterone.

[8] = 0.5 micrograms per day or 5 micrograms per week; cited from earlier work

Compound | 24-OH expression (Western blot, band density) [1] | half life after oral administration [2] | cell viability (MTS assay) [4] | cell viability (MTS assay) [5] | cell viability (MTS assay) [6] | also measured
1,25-dihydroxyvitamin D3 [Vitamin D (1,25(OH)2 D3)] | markedly induced |  |  |  |  | 
C=C1CC[C@H](O)C/C1=C/C=C1\CCC[C@]2(C)[C@@H]([C@H](C)CCCC(C)(C)O)CC[C@@H]12 [25(OH) D3, 25-hydroxyvitamin D3] |  | approximately 2 weeks |  |  |  | 
O=c1c(-c2ccc(O)cc2)coc2cc(O)cc(O)c12 [Genistein, genistein] |  |  |  |  |  | inhibition of 24-OH [3]: inhibit 24-OH
CC(=O)[C@H]1CC[C@H]2[C@@H]3CCC4=CC(=O)CC[C@]4(C)[C@H]3CC[C@]12C [Progesterone, progesterone] | causes both degradation and decreases production of 24 hydroxylase |  | inhibit cell viability in a dose response fashion | inhibit cell viability in a dose response fashion | inhibit cell viability in a dose response fashion | increase in apoptosis (TUNEL) [7]: 1.7 fold
C=C1/C(=C\C=C2/CCC[C@]3(C)[C@@H]([C@H](C)CCCC(C)(C)O)CC[C@@H]23)C[C@@H](O)C[C@@H]1O [Vitamin D (1,25(OH)2 D3), 1,25-dihydroxyvitamin D3] |  | 5 to 8 h | inhibit cell viability in a dose response fashion | inhibit cell viability in a dose response fashion | inhibit cell viability in a dose response fashion | serum half-life ([2]; serum): 6 to 8 h; individuals developing hypercalcemia [8]: 1-3%
